Patent US11034650B2, “Compounds useful for treating a Mannheimia haemolytica or Histophilus somni infection” (Intervet Inc., priority 2016, dated 2021)
Values after ≈ are worked out from the molar mass of the structure shown.

Experiments:
Format in all cases: cell-based
[1] = tested on: Mannheimia haemolytica MH 6357 (M7/2, reference strain, cattle infection strain); test: MIC, broth-microdilution (CLSI VET01-A4), strain MH 6357; conditions: Mannheimia haemolytica strain MH 6357, broth-microdilution; unit assumed
Outline: (§1)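 Visual endpoint: the first dilution of a doubling series lacking turbidity gives the MIC; CLSI VET01-S3 interpretive rules applied.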

[2] = tested on: Mannheimia haemolytica MH 6374 (ATCC 33396, reference strain); test: MIC, broth-microdilution (CLSI VET01-A4), strain MH 6374; conditions: Mannheimia haemolytica strain MH 6374, broth-microdilution; unit assumed
Outline: as §1

[3] = tested on: Mannheimia haemolytica MH 10720 (154, BRD field isolate); test: MIC, broth-microdilution (CLSI VET01-A4), strain MH 10720; conditions: Mannheimia haemolytica strain MH 10720, broth-microdilution; unit assumed
Outline: as §1

[4] = tested on: Mannheimia haemolytica MH 12587 (1071, BRD field isolate, macrolide-resistance: erm+, E+); test: MIC, broth-microdilution (CLSI VET01-A4), strain MH 12587; conditions: Mannheimia haemolytica strain MH 12587, broth-microdilution; unit assumed
Outline: as §1

[5] = tested on: Mannheimia haemolytica MH 13065 (XB0446-6003.9, BRD field isolate); test: MIC, broth-microdilution (CLSI VET01-A4), strain MH 13065; conditions: Mannheimia haemolytica strain MH 13065, broth-microdilution; unit assumed
Outline: as §1

[6] = tested on: Mannheimia haemolytica MH 13093 (XB0472-6014.1, BRD field isolate); test: MIC, broth-microdilution (CLSI VET01-A4), strain MH 13093; conditions: Mannheimia haemolytica strain MH 13093, broth-microdilution; unit assumed
Outline: as §1

[7] = tested on: Pasteurella multocida PM 6267 (P 2225 (L386), reference strain, mouse infection strain); test: MIC, broth-microdilution (CLSI VET01-A4), strain PM 6267; conditions: Pasteurella multocida strain PM 6267, broth-microdilution; unit assumed
Outline: as §1

[8] = tested on: Pasteurella multocida PM 6391 (ATCC 43137, reference strain); test: MIC, broth-microdilution (CLSI VET01-A4), strain PM 6391; conditions: Pasteurella multocida strain PM 6391, broth-microdilution; unit assumed
Outline: as §1

[9] = tested on: Pasteurella multocida PM 10775 (080130003051, BRD field isolate); test: MIC, broth-microdilution (CLSI VET01-A4), strain PM 10775; conditions: Pasteurella multocida strain PM 10775, broth-microdilution; unit assumed
Outline: as §1

[10] = tested on: Pasteurella multocida PM 12080 (IV102277-0093, BRD field isolate); test: MIC, broth-microdilution (CLSI VET01-A4), strain PM 12080; conditions: Pasteurella multocida strain PM 12080, broth-microdilution; unit assumed
Outline: as §1

| Structure (SMILES) | MIC PM 6267 [7] | MIC PM 6391 [8] | MIC PM 10775 [9] | MIC PM 12080 [10] | MIC MH 6357 [1] | MIC MH 6374 [2] | MIC MH 10720 [3] | MIC MH 12587 [4] | MIC MH 13065 [5] | MIC MH 13093 [6] |
| --- | --- | --- | --- | --- | --- | --- | --- | --- | --- | --- |
| CC(C)(O)[C@H](NC(=O)c1ccc(C#Cc2ccc(CNC3CC3)nc2)cc1)C(=O)NO [Compound 324] | 0.4 µg/mL (≈ 0.947 µM) | 0.4 µg/mL (≈ 0.947 µM) | ≤ 0.1 µg/mL | 0.2 µg/mL (≈ 0.473 µM) | 0.4 µg/mL (≈ 0.947 µM) | 0.8 µg/mL (≈ 1.89 µM) | ≤ 0.1 µg/mL | 1.6 µg/mL (≈ 3.79 µM) | 0.8 µg/mL (≈ 1.89 µM) | 1.6 µg/mL (≈ 3.79 µM) |
| CC(C)([C@H](NC(=O)c1ccc(C#Cc2ccc(CNCc3ccccn3)s2)cc1)C(=O)NO)S(C)(=O)=O [Compound 320] | 0.2 µg/mL (≈ 0.37 µM) | ≤ 0.1 µg/mL | ≤ 0.1 µg/mL | ≤ 0.1 µg/mL | 0.2 µg/mL (≈ 0.37 µM) | ≤ 0.1 µg/mL | ≤ 0.1 µg/mL | 0.8 µg/mL (≈ 1.48 µM) | 0.2 µg/mL (≈ 0.37 µM) | 0.4 µg/mL (≈ 0.74 µM) |
| CSC(C)(C)[C@H](NC(=O)c1ccc(C#Cc2ccc(CNCc3ncc(C)o3)nc2)cc1)C(=O)NO [Compound 347] | 1.6 µg/mL (≈ 3.15 µM) | 0.8 µg/mL (≈ 1.58 µM) | ≤ 0.1 µg/mL | 0.8 µg/mL (≈ 1.58 µM) | 0.8 µg/mL (≈ 1.58 µM) | 1.6 µg/mL (≈ 3.15 µM) | 0.2 µg/mL (≈ 0.394 µM) | 3.1 µg/mL (≈ 6.11 µM) | 1.6 µg/mL (≈ 3.15 µM) | 1.6 µg/mL (≈ 3.15 µM) |
| C=CCNCc1ccc(C#Cc2ccc(C(=O)N[C@H](C(=O)NO)C(C)(C)S(C)(=O)=O)cc2)s1 [Compound 312] | 0.4 µg/mL (≈ 0.817 µM) | ≤ 0.1 µg/mL | ≤ 0.1 µg/mL | ≤ 0.1 µg/mL | 0.4 µg/mL (≈ 0.817 µM) | 0.4 µg/mL (≈ 0.817 µM) | ≤ 0.1 µg/mL | 0.8 µg/mL (≈ 1.63 µM) | 0.4 µg/mL (≈ 0.817 µM) | 0.8 µg/mL (≈ 1.63 µM) |
| COCCNCc1ccc(C#Cc2ccc(C(=O)N[C@H](C(=O)NO)C(C)(C)SC)cc2)cc1 [C.237] | 0.2 µg/mL (≈ 0.426 µM) | 0.8 µg/mL (≈ 1.7 µM) | ≤ 0.1 µg/mL | 0.4 µg/mL (≈ 0.852 µM) | 1.6 µg/mL (≈ 3.41 µM) | 1.6 µg/mL (≈ 3.41 µM) | 0.2 µg/mL (≈ 0.426 µM) | 3.1 µg/mL (≈ 6.6 µM) | 1.6 µg/mL (≈ 3.41 µM) | 1.6 µg/mL (≈ 3.41 µM) |

More lines, main results first:

| MIC PM 6267 [7] | MIC PM 6391 [8] | MIC PM 10775 [9] | MIC PM 12080 [10] | Structure (SMILES) | MIC MH 6357 [1] | MIC MH 6374 [2] | MIC MH 10720 [3] | MIC MH 12587 [4] | MIC MH 13065 [5] | MIC MH 13093 [6] |
| --- | --- | --- | --- | --- | --- | --- | --- | --- | --- | --- |
| ≤ 0.1 µg/mL | 0.2 µg/mL (≈ 0.446 µM) | ≤ 0.1 µg/mL | ≤ 0.1 µg/mL | CC(C)[C@H](NC(=O)c1ccc(C#Cc2ccc(CN3CCN(C)CC3)cc2)cc1)C(=O)NO [Compound 211] | 3.1 µg/mL (≈ 6.91 µM) | 12.5 µg/mL (≈ 27.9 µM) | 1.6 µg/mL (≈ 3.57 µM) | 12.5 µg/mL (≈ 27.9 µM) | 6.3 µg/mL (≈ 14 µM) | 6.3 µg/mL (≈ 14 µM) |
| ≤ 0.1 µg/mL | 0.2 µg/mL (≈ 0.379 µM) | ≤ 0.1 µg/mL | ≤ 0.1 µg/mL | CC(C)([C@H](NC(=O)c1ccc(C#Cc2ccc(CNCC3CCCO3)cc2)cc1)C(=O)NO)S(C)(=O)=O (some centres unmarked) [Compound 273] | 6.3 µg/mL (≈ 11.9 µM) | 3.1 µg/mL (≈ 5.88 µM) | 0.8 µg/mL (≈ 1.52 µM) | 6.3 µg/mL (≈ 11.9 µM) | 3.1 µg/mL (≈ 5.88 µM) | 6.3 µg/mL (≈ 11.9 µM) |
| 0.4 µg/mL (≈ 0.9 µM) | 0.8 µg/mL (≈ 1.8 µM) | ≤ 0.1 µg/mL | 0.8 µg/mL (≈ 1.8 µM) | O=C(N[C@@H](CO)C(=O)NO)c1ccc(C#Cc2ccc(CNCc3cccnc3)cc2)cc1 [Compound 157] | 1.6 µg/mL (≈ 3.6 µM) | 1.6 µg/mL (≈ 3.6 µM) | 0.8 µg/mL (≈ 1.8 µM) | 6.3 µg/mL (≈ 14.2 µM) | 3.1 µg/mL (≈ 6.97 µM) | 6.3 µg/mL (≈ 14.2 µM) |
| 1.6 µg/mL (≈ 3.3 µM) | ≤ 0.1 µg/mL | ≤ 0.1 µg/mL | ≤ 0.1 µg/mL | CON=C(C)C(NC(=O)c1ccc(C#Cc2ccc(CNCc3ccncc3)cc2)cc1)C(=O)NO (centres unmarked) [Compound 415] | 0.4 µg/mL (≈ 0.824 µM) | 0.8 µg/mL (≈ 1.65 µM) | 0.4 µg/mL (≈ 0.824 µM) | 0.2 µg/mL (≈ 0.412 µM) | 0.4 µg/mL (≈ 0.824 µM) | 0.4 µg/mL (≈ 0.824 µM) |
| 0.4 µg/mL (≈ 0.894 µM) | 1.6 µg/mL (≈ 3.57 µM) | ≤ 0.1 µg/mL | 0.8 µg/mL (≈ 1.79 µM) | CC[C@H](C)[C@H](NC(=O)c1ccc(C#Cc2ccc(CN3CCCCC3)cc2)cc1)C(=O)NO [Compound 187] | 3.1 µg/mL (≈ 6.93 µM) | 12.5 µg/mL (≈ 27.9 µM) | 1.6 µg/mL (≈ 3.57 µM) | 12.5 µg/mL (≈ 27.9 µM) | 6.3 µg/mL (≈ 14.1 µM) | 6.3 µg/mL (≈ 14.1 µM) |
| ≤ 0.1 µg/mL | ≤ 0.1 µg/mL | ≤ 0.1 µg/mL | ≤ 0.1 µg/mL | CC(C)([C@H](NC(=O)c1ccc(C#Cc2ccc(CNCC#N)cc2)cc1)C(=O)NO)S(C)(=O)=O [Compound 266] | 0.8 µg/mL (≈ 1.66 µM) | 0.4 µg/mL (≈ 0.829 µM) | ≤ 0.1 µg/mL | 1.6 µg/mL (≈ 3.32 µM) | 0.8 µg/mL (≈ 1.66 µM) | 0.8 µg/mL (≈ 1.66 µM) |
